Measurements taken from article PMC12383022, “Discovery of a Novel Antimicrobial Peptide from Paenibacillus sp. Na14 with Potent Activity Against Gram-Negative Bacteria and Genomic Insights into Its Biosynthetic Pathway” (Antibiotics, 2025).
Read-outs that look alike come from different tables or passages of the source. Where no end group is shown, it is not given here.

Tests used:
[1] = tested on: P. aeruginosa TISTR 357; test: Time–kill assay; type: cell-based, Pseudomonas aeruginosa
Method: (§1) The cultures were diluted 20-fold using CAMHB. […] The diluted bacterial suspension (10 μL) was mixed into each well before incubating the plates at 37 °C. At predetermined time points, 100 μL of either diluted or undiluted samples from each well were plated on MH agar and incubated at 37 °C for 24 h. Bacterial viability was assessed by colony counting and expressed as log CFU/mL [56].

[2] = tested on: E. coli TISTR 887, P. aeruginosa TISTR 357, K. pneumoniae TISTR 1383; test: Time–kill kinetic assay, statement for all tested strains; type: cell-based; details: peptide at 1× MIC
Method: as §1

[3] = tested on: K. pneumoniae TISTR 1383; test: Time–kill assay; type: cell-based, Klebsiella pneumoniae
Method: as §1

[4] = tested on: E. coli TISTR 887; type: cell-based, Escherichia coli; details: TISTR 887, 24 h
Method: (§2) A bacterial suspension was prepared by adjusting its turbidity at OD 625 nm to 0.1 and subsequently made a 20-fold dilution using Cation-Adjusted Mueller–Hinton broth (CAHMB) as a diluent. […] The diluted cell suspension (10 µL) was added to each well, and the plates were incubated at 37 °C for 24 h. The CAMHB alone was used as a negative control, while CAMHB containing colistin or vancomycin served as a positive control.

[5] = tested on: K. pneumoniae TISTR 1383; type: cell-based, Klebsiella pneumoniae; details: TISTR 1383, 24 h
Method: as §2

[6] = tested on: E. coli TISTR 887; test: SDS-PAGE gel overlay inhibition assay; type: cell-based, Escherichia coli; details: 15% SDS-PAGE gel overlaid with soft agar containing E. coli TISTR 887; at the position of the peptide band
Method: The peptides ([…]) were subjected to analysis using a 15% sodium dodecyl sulfate-polyacrylamide gel electrophoresis (SDS-PAGE). The gel was electrophoresed at a constant voltage of 100 V. One half of the gel was stained using Coomassie brilliant blue G-250 to visualize protein bands, with a molecular weight marker included to facilitate band position comparison. The remaining half was fixed in a solution containing 5% acetic acid and 25% methanol for 30 min, followed by a 3 h wash with distilled water. Subsequently, 18 mL of soft MH agar, including E. coli TISTR 887, was overlaid onto the gel to assess antimicrobial activity by observing inhibition zones after incubation at 37 °C for 24 h.

[7] = tested on: E. coli TISTR 887; details: agar well diffusion vs untreated control, mean ± SD, three independent experiments
Method: (§3) The purified Na14 AMP was prepared at a concentration of 10× MIC. Thermal stability was assessed by incubating the peptide at 30 °C, 50 °C, 70 °C, and 90 °C for 3 h. pH stability was evaluated by adjusting the peptide solution to pH 3, 5, 7, 9, and 11 using 1 N HCl or 1 N NaOH, followed by incubation at 37 °C for 3 h and subsequent neutralization to the original pH. […] The residual antimicrobial activity of each treatment condition was determined using an agar well diffusion assay against E. coli TISTR 887, P. aeruginosa TISTR 357, and K. pneumoniae TISTR 1383 to cross-validate efficacy across multiple pathogens. The untreated peptide served as a control. Statistical significance was analyzed using one-way ANOVA, with comparisons to the control group considered significant at p-value < 0.05. The results are presented as the percentage of residual antimicrobial activity.

[8] = tested on: E. coli TISTR 887; test: Antimicrobial activity of purification fractions (arbitrary units, two-fold dilutions, agar well diffusion); type: cell-based, Escherichia coli; details: against E. coli TISTR 887
Method: Single colonies of the Na14 isolate were resuspended in 0.9% NaCl solution, and the cell suspension was adjusted to an OD of 0.35 at 625 nm. A 2% aliquot of this suspension was inoculated into 196 mL of LB broth and incubated at 37 °C for 24 h. The CFS was collected by centrifugation at 10,000× g for 15 min at 4 °C. Bioactive compounds were then precipitated using stepwise ammonium sulfate precipitation at 25%, 50%, and 75% saturation levels. The active compounds were purified using cation exchange chromatography (CIEX) followed by reversed-phase chromatography (RPC), as described in our previous study. The purified compounds were concentrated using a refrigerated speed vacuum concentrator. The dried samples were reconstituted in deionized water and subjected to two-fold serial dilutions. An aliquot (100 µL) of each dilution was used to evaluate antimicrobial activity using the agar well diffusion method, employing E. coli TISTR 887 as the tested bacteria. The purification efficiency was assessed by calculating antimicrobial activity at each purification stage using the following equation [49]. Antimicrobial activity (arbitrary unit/mL; AU/mL)= 2^n × 1000/V where n represents the reciprocal of the highest two-fold dilution that produces a visible inhibition zone, and V denotes the volume of the sample in µL.

[9] = tested on: K. pneumoniae TISTR 1383; details: agar well diffusion vs untreated control, mean ± SD, three independent experiments
Method: as §3

[10] = tested on: P. aeruginosa TISTR 357; type: cell-based, Pseudomonas aeruginosa; details: TISTR 357, 24 h
Method: as §2

[11] = tested on: MRSA Strain 2468; test: microbe, parasite or virus in culture; type: cell-based, Staphylococcus aureus; details: Strain 2468, 24 h
Method: as §2

[12] = tested on: S. aureus TISTR 517; test: microbe, parasite or virus in culture; type: cell-based, Staphylococcus aureus; details: TISTR 517, 24 h
Method: as §2

[13] = tested on: P. aeruginosa TISTR 357; details: agar well diffusion vs untreated control, mean ± SD, three independent experiments
Method: as §3

[14] = tested on: E. coli TISTR 887; test: Time–kill assay; type: cell-based, Escherichia coli
Method: as §1

[15] = tested on: E. coli; set-up: method as in PMID 36912655; details: cited from earlier work
[16] = peptide at 0.5× MIC, growth resumed thereafter until 24 h
[17] = peptide at 1× MIC, CAMHB, 37 °C, LOD 10 CFU/mL
[18] = peptide at 2× MIC, CAMHB, 37 °C, LOD 10 CFU/mL
[19] = peptide at 10× MIC adjusted to pH 3 (1 N HCl or 1 N NaOH), 37 °C, 3 h, then neutralized
[20] = peptide at 10× MIC adjusted to pH 5, 37 °C, 3 h, then neutralized
[21] = peptide at 10× MIC adjusted to pH 7, 37 °C, 3 h, then neutralized
[22] = peptide at 10× MIC adjusted to pH 9, 37 °C, 3 h, then neutralized
[23] = peptide at 10× MIC adjusted to pH 11, 37 °C, 3 h, then neutralized
[24] = peptide at 10× MIC incubated at 30 °C for 3 h
[25] = peptide at 10× MIC incubated at 50 °C for 3 h
[26] = peptide at 10× MIC incubated at 70 °C for 3 h
[27] = peptide at 10× MIC incubated at 90 °C for 3 h

LALLVVVKVLKYVV [Na14 peptide]
duration of temporary growth suppression, P. aeruginosa TISTR 357 [1, 16]: 3 h | time at which bacteria were eliminated, P. aeruginosa TISTR 357 [1, 17]: 6 h | time of complete eradication, P. aeruginosa TISTR 357 [1, 18]: 3 h | reduction of bacterial counts [2]: more than 3 log units | duration of growth inhibition, K. pneumoniae TISTR 1383 [3, 16]: up to 6 h | time at which bacteria were eliminated, K. pneumoniae TISTR 1383 [3, 17]: 9 h | time of complete eradication, K. pneumoniae TISTR 1383 [3, 18]: 6 h | MBC, E. coli TISTR 887 [4]: 2 µg/mL | MIC, E. coli TISTR 887 [4]: 2 µg/mL | MBC, K. pneumoniae TISTR 1383 [5]: 4 µg/mL | MIC, K. pneumoniae TISTR 1383 [5]: 4 µg/mL | gel overlay inhibition of E. coli TISTR 887 [6]: An inhibition zone was observed | Residual Antimicrobial Activity, E. coli TISTR 887 [7, 19]: 100.64 ± 2.30% | Residual Antimicrobial Activity, E. coli TISTR 887 [7, 20]: 100.85 ± 1.95% | Residual Antimicrobial Activity, E. coli TISTR 887 [7, 21]: 99.36 ± 2.93% | Residual Antimicrobial Activity, E. coli TISTR 887 [7, 22]: 98.72 ± 1.28% | Residual Antimicrobial Activity, E. coli TISTR 887 [7, 23]: 98.51 ± 1.33% | Residual Antimicrobial Activity, E. coli TISTR 887 [7, 24]: 98.24 ± 1.67% | Residual Antimicrobial Activity, E. coli TISTR 887 [7, 25]: 99.12 ± 1.02% | Residual Antimicrobial Activity, E. coli TISTR 887 [7, 26]: 98.89 ± 2.03% | Residual Antimicrobial Activity, E. coli TISTR 887 [7, 27]: 98.46 ± 1.55% | Specific Activity ([8]; purification balance sheet): 835.99 AU/mg | Arbitrary Activity ([8]; two-fold serial dilutions, 100 µL, agar well diffusion, AU/mL = 2^n × 1000/V): 320 AU/mL | Residual Antimicrobial Activity, K. pneumoniae TISTR 1383 [9, 19]: 100.43 ± 0.37% | Residual Antimicrobial Activity, K. pneumoniae TISTR 1383 [9, 20]: 99.14 ± 1.35% | Residual Antimicrobial Activity, K. pneumoniae TISTR 1383 [9, 21]: 98.06 ± 2.34% | Residual Antimicrobial Activity, K. pneumoniae TISTR 1383 [9, 22]: 97.62 ± 2.08% | Residual Antimicrobial Activity, K. pneumoniae TISTR 1383 [9, 23]: 99.57 ± 2.08% | Residual Antimicrobial Activity, K. pneumoniae TISTR 1383 [9, 24]: 100.89 ± 0.39% | Residual Antimicrobial Activity, K. pneumoniae TISTR 1383 [9, 25]: 98.21 ± 4.09% | Residual Antimicrobial Activity, K. pneumoniae TISTR 1383 [9, 26]: 98.66 ± 4.07% | Residual Antimicrobial Activity, K. pneumoniae TISTR 1383 [9, 27]: 99.11 ± 1.39% | MBC, P. aeruginosa TISTR 357 [10]: 2 µg/mL | MIC, P. aeruginosa TISTR 357 [10]: 2 µg/mL | MBC, MRSA strain 2468 [11]: >128 µg/mL | MIC, MRSA strain 2468 [11]: >128 µg/mL | MBC, S. aureus TISTR 517 [12]: >128 µg/mL | MIC, S. aureus TISTR 517 [12]: >128 µg/mL | Residual Antimicrobial Activity, P. aeruginosa TISTR 357 [13, 19]: 99.58 ± 0.74% | Residual Antimicrobial Activity, P. aeruginosa TISTR 357 [13, 20]: 99.36 ± 1.69% | Residual Antimicrobial Activity, P. aeruginosa TISTR 357 [13, 21]: 99.36 ± 3.18% | Residual Antimicrobial Activity, P. aeruginosa TISTR 357 [13, 22]: 98.73 ± 2.30% | Residual Antimicrobial Activity, P. aeruginosa TISTR 357 [13, 23]: 98.30 ± 2.24% | Residual Antimicrobial Activity, P. aeruginosa TISTR 357 [13, 24]: 98.08 ± 1.11% | Residual Antimicrobial Activity, P. aeruginosa TISTR 357 [13, 25]: 98.51 ± 0.37% | Residual Antimicrobial Activity, P. aeruginosa TISTR 357 [13, 26]: 98.72 ± 0.64% | Residual Antimicrobial Activity, P. aeruginosa TISTR 357 [13, 27]: 97.22 ± 1.62% | duration of temporary growth suppression, E. coli TISTR 887 [14, 16]: 3 h | time at which bacteria were eliminated, E. coli TISTR 887 [14, 17]: 12 h | time of complete eradication, E. coli TISTR 887 [14, 18]: 6 h

brevicidine
viability of E. coli at lower concentrations ([15]; 0.5× to 2× MIC): remained viable | time to eradication of E. coli ([15]; peptide at 4× MIC): 1 h
